Source: US9447122B2, “Arginase inhibitors and methods of use thereof” (AstraZeneca AB, priority 2010, dated 2016)
Like-named read-outs stand apart in the source and are kept apart here.

Assays:
[1] = molecular target: T1, human arginase I (Homo sapiens, UniProt P05089); assay: Arginase inhibition, QuantiChrom colorimetric urea assay, IC50 converted to Ki; assay type: biochemical
T1 sequence (P05089 1-322): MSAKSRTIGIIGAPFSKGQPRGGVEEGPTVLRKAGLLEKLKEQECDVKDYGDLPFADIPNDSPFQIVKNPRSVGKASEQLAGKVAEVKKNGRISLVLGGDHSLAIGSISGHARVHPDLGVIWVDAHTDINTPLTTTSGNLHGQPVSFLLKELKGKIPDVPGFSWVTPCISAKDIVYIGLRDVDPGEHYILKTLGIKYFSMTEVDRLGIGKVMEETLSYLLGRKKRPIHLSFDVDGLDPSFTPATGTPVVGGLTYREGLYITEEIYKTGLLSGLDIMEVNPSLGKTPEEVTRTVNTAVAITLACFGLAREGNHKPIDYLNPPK
Procedure: (§1) For some compounds, their inhibitory potency at pH 7.5 was compared to the inhibitory potency of ABH at pH 7.5.
(§2) Quantitative determination of arginase activity was performed in a 96-well format by a colorimetric method using the QuantiChrom™ Arginase Assay Kit available from BioAssay Systems (Hayward, Calif., Catalog No. DARG-200) according to the manufacturer's protocol. Modifications were made to reagent quantities to suit the assaying of a highly purified sample.
(§3) The intensity of the color was directly proportional to the arginase activity in the sample.
(§4) The rate of urea production was measured in the presence of twelve different concentrations of each potential inhibitor compound. In a typical assay, seven different compounds were tested relative to a control inhibitor (e.g. ABH) against one enzyme (either human ArgI or human ArgII) at a particular pH (either 9.5 or 7.5). The pH of the solution was controlled using an appropriate pH buffering compound at 60 mM concentrations; for example, 60 mM glycine (pH 9.5) or 60 mM HEPES (pH 7.5). The half maximal inhibitory concentration (IC50) was determined by constructing a dose-response curve.

[2] = molecular target: T2, human arginase II (Homo sapiens, UniProt P78540); assay: as above; assay type: biochemical
T2 sequence (P78540 23-354): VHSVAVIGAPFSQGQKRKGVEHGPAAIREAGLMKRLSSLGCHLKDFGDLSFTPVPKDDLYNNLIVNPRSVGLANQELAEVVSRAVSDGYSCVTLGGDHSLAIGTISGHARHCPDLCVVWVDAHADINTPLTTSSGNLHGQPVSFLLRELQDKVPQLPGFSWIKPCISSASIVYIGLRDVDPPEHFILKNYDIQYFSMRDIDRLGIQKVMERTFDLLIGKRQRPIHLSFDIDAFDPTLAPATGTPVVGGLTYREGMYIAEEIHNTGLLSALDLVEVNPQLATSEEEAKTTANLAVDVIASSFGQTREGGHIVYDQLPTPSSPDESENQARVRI
Procedure: as §1, §2, §3, §4

[3] = Table 3, pH 7.5, read-out: human Arginase I pH 7.5, Ki assigned value
[4] = Table 3, pH 9.5, read-out: human Arginase I pH 9.5, Ki assigned value
[5] = Table 3, pH 7.5, read-out: human Arginase II pH 7.5, Ki assigned value
[6] = Table 3, pH 9.5, read-out: human Arginase II pH 9.5, Ki assigned value
[7] = Table 2, pH 7.5, read-out: human arginase I pH 7.5, Ki assigned value
[8] = Table 2, pH 9.5, read-out: human arginase I pH 9.5, Ki assigned value
[9] = Table 2, pH 7.5, read-out: human arginase II pH 7.5, Ki assigned value
[10] = Table 2, pH 9.5, read-out: human arginase II pH 9.5, Ki assigned value

Structure (SMILES)	Ki [1, 3]	Ki [1, 4]	Ki [2, 5]	Ki [2, 6]	Ki [1, 7]	Ki [1, 8]	Ki [2, 9]	Ki [2, 10]
NC(CCCCB(O)O)(CCCN1CCN(c2ccc(Cl)c(Cl)c2)CC1)C(=O)O (stereo not shown) [Example 16]	11 to 50 nM	51 to 100 nM	51 to 100 nM	11 to 50 nM	–	–	–	–
NC(CCCCB(O)O)(CCCCN1CCC(Cc2ccc(F)c(F)c2)CC1)C(=O)O (stereo not shown) [Example 95]	51 to 100 nM	< 10 nM	11 to 50 nM	< 10 nM	–	–	–	–
CN1CCN(CCCC(N)(CCCCB(O)O)C(=O)O)CC1 (stereo not shown) [Example 106]	11 to 50 nM	11 to 50 nM	11 to 50 nM	251 to 400 nM	–	–	–	–
NC(CCCCB(O)O)(CCN1CCN(Cc2ccc(Cl)c(Cl)c2)CC1)C(=O)O (stereo not shown) [Example 15]	101 to 250 nM	101 to 250 nM	> 400 nM	51 to 100 nM	–	–	–	–
NC(CCCCB(O)O)(CCCN1CCC(Cc2ccc(F)c(F)c2)CC1)C(=O)O (stereo not shown) [Example 28]	–	–	–	–	< 10 nM	< 10 nM	51 to 100 nM	< 10 nM
COCCN(C)CCCC(N)(CCCCB(O)O)C(=O)O (stereo not shown) [Example 85]	11 to 50 nM	11 to 50 nM	11 to 50 nM	101 to 250 nM	–	–	–	–
CN(CCCC(N)(CCCCB(O)O)C(=O)O)C1CCCCC1 (stereo not shown) [Example 78]	11 to 50 nM	11 to 50 nM	51 to 100 nM	11 to 50 nM	–	–	–	–
NC(CCCCB(O)O)(CCCn1cnc2ccccc21)C(=O)O (stereo not shown) [Example 116]	251 to 400 nM	11 to 50 nM	11 to 50 nM	11 to 50 nM	–	–	–	–
NC(CCCCB(O)O)(CCCN1CCCC1)C(=O)O (stereo not shown) [Example 56]	11 to 50 nM	11 to 50 nM	51 to 100 nM	101 to 250 nM	–	–	–	–
NC(CCCCB(O)O)(CCCCN1CCc2ccccc2C1)C(=O)O (stereo not shown) [Example 96]	11 to 50 nM	11 to 50 nM	11 to 50 nM	11 to 50 nM	–	–	–	–
NC(CCCCB(O)O)(CCCN1CCCC1c1ccc(-c2ccccc2)cc1)C(=O)O (stereo not shown) [Example 54]	11 to 50 nM	11 to 50 nM	11 to 50 nM	51 to 100 nM	–	–	–	–
NC(CCCCB(O)O)(CCCCN1CCNCC1)C(=O)O (stereo not shown) [Example 93]	11 to 50 nM	11 to 50 nM	> 400 nM	11 to 50 nM	–	–	–	–
NC(CCCCB(O)O)(CCCN1CCN(Cc2ccc(F)cc2)CC1)C(=O)O (stereo not shown) [Example 11]	–	–	–	–	< 10 nM	11 to 50 nM	11 to 50 nM	11 to 50 nM
CN(CCCC(N)(CCCCB(O)O)C(=O)O)CCc1ccccc1 (stereo not shown) [Example 68]	11 to 50 nM	11 to 50 nM	11 to 50 nM	11 to 50 nM	–	–	–	–
NC(CCCCB(O)O)(CCCN1CCC2(CC1)C(=O)NCN2c1ccccc1)C(=O)O (stereo not shown) [Example 31]	< 10 nM	11 to 50 nM	< 10 nM	51 to 100 nM	–	–	–	–
NC(CCCCB(O)O)(CCCCN1CCN(c2ccc(Cl)c(Cl)c2)CC1)C(=O)O (stereo not shown) [Example 94]	11 to 50 nM	11 to 50 nM	< 10 nM	11 to 50 nM	–	–	–	–
NC(CCCCB(O)O)(CCC1CCCCN1Cc1ccc(F)c(F)c1)C(=O)O (stereo not shown) [Example 21]	11 to 50 nM	11 to 50 nM	51 to 100 nM	51 to 100 nM	–	–	–	–
NC(CCCCB(O)O)(CCCN1CCC(NC(=O)c2ccccc2)CC1)C(=O)O (stereo not shown) [Example 44]	< 10 nM	11 to 50 nM	< 10 nM	11 to 50 nM	–	–	–	–
NC(CCCCB(O)O)(CCCN1CCCC1c1ccccc1C(F)(F)F)C(=O)O (stereo not shown) [Example 51]	11 to 50 nM	51 to 100 nM	11 to 50 nM	101 to 250 nM	–	–	–	–
NC(CCCCB(O)O)(CCCN1CCN(Cc2cccc(F)c2F)CC1)C(=O)O (stereo not shown) [Example 7]	< 10 nM	11 to 50 nM	11 to 50 nM	51 to 100 nM	–	–	–	–
NC(CCCCB(O)O)(CCCN1CCSCC1)C(=O)O (stereo not shown) [Example 65]	11 to 50 nM	51 to 100 nM	11 to 50 nM	> 400 nM	–	–	–	–
CN(C)CCN(C)CCCC(N)(CCCCB(O)O)C(=O)O (stereo not shown) [Example 88]	51 to 100 nM	11 to 50 nM	51 to 100 nM	51 to 100 nM	–	–	–	–
NC(CCCCB(O)O)(CCCN1CCc2ccccc2C1)C(=O)O (stereo not shown) [Example 45]	< 10 nM	11 to 50 nM	< 10 nM	11 to 50 nM	–	–	–	–
NC(CCCCB(O)O)(CCCN1CCN(c2ccc(C(F)(F)F)cn2)CC1)C(=O)O (stereo not shown) [Example 41]	< 10 nM	11 to 50 nM	< 10 nM	11 to 50 nM	–	–	–	–
NC(CCCCB(O)O)(CCC1CCCCN1Cc1cc(F)cc(F)c1)C(=O)O (stereo not shown) [Example 20]	11 to 50 nM	11 to 50 nM	101 to 250 nM	101 to 250 nM	–	–	–	–
NC(CCCCB(O)O)(CCCN1CCC(O)(c2ccc(Cl)cc2)CC1)C(=O)O (stereo not shown) [Example 40]	< 10 nM	< 10 nM	< 10 nM	11 to 50 nM	–	–	–	–
NC(CCCCB(O)O)(CCCN1CCC(NS(=O)(=O)c2ccc(Cl)c(Cl)c2)C1)C(=O)O (stereo not shown) [Example 114]	< 10 nM	11 to 50 nM	< 10 nM	11 to 50 nM	–	–	–	–
NC(CCCCB(O)O)(CCCN1CCC(C(=O)c2ccc(F)cc2)CC1)C(=O)O (stereo not shown) [Example 101]	< 10 nM	11 to 50 nM	< 10 nM	11 to 50 nM	–	–	–	–
NC(CCCCB(O)O)(CCCN1CC(c2ccccc2)C1)C(=O)O (stereo not shown) [Example 58]	< 10 nM	11 to 50 nM	11 to 50 nM	11 to 50 nM	–	–	–	–

Continued, values first:

Ki [1, 3]	Ki [1, 4]	Ki [2, 5]	Ki [2, 6]	Ki [1, 7]	Ki [1, 8]	Ki [2, 9]	Ki [2, 10]	Structure (SMILES)
< 10 nM	11 to 50 nM	< 10 nM	11 to 50 nM	–	–	–	–	NC(CCCCB(O)O)(CCCN1C2CCC1CC(n1cnc3ccccc31)C2)C(=O)O (stereo not shown) [Example 102]
< 10 nM	< 10 nM	< 10 nM	11 to 50 nM	–	–	–	–	COc1ccc(C2CCN(CCCC(N)(CCCCB(O)O)C(=O)O)CC2)cc1 (stereo not shown) [Example 37]
< 10 nM	11 to 50 nM	11 to 50 nM	51 to 100 nM	–	–	–	–	NC(CCCCB(O)O)(CCCN1CCC1)C(=O)O (stereo not shown) [Example 57]
< 10 nM	< 10 nM	< 10 nM	11 to 50 nM	–	–	–	–	NC(CCCCB(O)O)(CCCN1CCC(NC(=O)Nc2ccc(Cl)c(Cl)c2)C1)C(=O)O (stereo not shown) [Example 112]
< 10 nM	11 to 50 nM	< 10 nM	11 to 50 nM	–	–	–	–	NC(CCCCB(O)O)(CCCN1CCCC(c2ccccc2)C1)C(=O)O (stereo not shown) [Example 26, 2-amino-6-borono-2-(3-(3-phenylpiperidin-1-yl)propyl)hexanoic acid]
< 10 nM	11 to 50 nM	< 10 nM	11 to 50 nM	–	–	–	–	NC(CCCCB(O)O)(CCCN1CCC(Nc2ccccc2)CC1)C(=O)O (stereo not shown) [Example 103]
< 10 nM	< 10 nM	< 10 nM	11 to 50 nM	–	–	–	–	NC(CCCCB(O)O)(CCCNC1CCCCC1)C(=O)O (stereo not shown) [Example 77]
< 10 nM	11 to 50 nM	< 10 nM	11 to 50 nM	–	–	–	–	NC(CCCCB(O)O)(CCCN1CCN(CCc2ccccc2)CC1)C(=O)O (stereo not shown) [Example 14]
< 10 nM	< 10 nM	< 10 nM	< 10 nM	–	–	–	–	NC(CCCCB(O)O)(CCCNCCc1ccccc1)C(=O)O (stereo not shown) [Example 67]
< 10 nM	11 to 50 nM	< 10 nM	< 10 nM	–	–	–	–	CN(CCCC(N)(CCCCB(O)O)C(=O)O)Cc1ccc2ccccc2c1 (stereo not shown) [Example 120]
< 10 nM	< 10 nM	< 10 nM	11 to 50 nM	–	–	–	–	NC(CCCCB(O)O)(CCCN1CCC(Oc2ccc(C(F)(F)F)cc2)CC1)C(=O)O (stereo not shown) [Example 34]
< 10 nM	11 to 50 nM	11 to 50 nM	51 to 100 nM	–	–	–	–	NC(CCCCB(O)O)(CCCN1CCOCC1)C(=O)O (stereo not shown) [Example 64]
< 10 nM	< 10 nM	< 10 nM	11 to 50 nM	–	–	–	–	NC(CCCCB(O)O)(CCCN1CC(NC(=O)Nc2ccc(Cl)c(Cl)c2)C1)C(=O)O (stereo not shown) [Example 60]
< 10 nM	< 10 nM	< 10 nM	11 to 50 nM	–	–	–	–	NC(CCCCB(O)O)(CCCN1CCC(O)(Cc2ccccc2)CC1)C(=O)O (stereo not shown) [Example 39]
